Assays:
[1] = target: T1, Prostaglandin G/H synthase 2 (Homo sapiens, UniProt P35354); experiment: Inhibition of COX2 in LPS-stimulated human blood
T1 sequence (P35354 whole entry): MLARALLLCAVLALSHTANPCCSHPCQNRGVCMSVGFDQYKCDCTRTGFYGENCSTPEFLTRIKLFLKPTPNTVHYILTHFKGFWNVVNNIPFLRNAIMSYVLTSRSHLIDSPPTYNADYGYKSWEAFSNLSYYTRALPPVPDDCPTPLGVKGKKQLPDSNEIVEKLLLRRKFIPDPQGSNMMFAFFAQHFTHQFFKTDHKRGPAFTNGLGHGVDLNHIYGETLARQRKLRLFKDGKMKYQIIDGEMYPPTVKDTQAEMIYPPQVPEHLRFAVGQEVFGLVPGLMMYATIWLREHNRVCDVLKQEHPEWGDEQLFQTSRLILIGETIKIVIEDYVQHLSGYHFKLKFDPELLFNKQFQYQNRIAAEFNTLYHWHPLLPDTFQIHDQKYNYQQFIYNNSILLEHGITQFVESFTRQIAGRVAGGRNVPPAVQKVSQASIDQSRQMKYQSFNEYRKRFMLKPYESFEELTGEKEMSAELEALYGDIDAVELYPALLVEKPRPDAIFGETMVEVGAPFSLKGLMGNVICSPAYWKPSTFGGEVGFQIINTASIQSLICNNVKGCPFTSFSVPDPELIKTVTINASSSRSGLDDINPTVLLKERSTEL

[2] = Inhibition of 5LOX in bovine polymorphonuclear leucocytes assessed as leukotriene B4 formation; assay type: cell-based; conditions: Bos taurus
[3] = target: T2, Prostaglandin G/H synthase 1 (Bos taurus, UniProt O62664)
T2 sequence (O62664 whole entry): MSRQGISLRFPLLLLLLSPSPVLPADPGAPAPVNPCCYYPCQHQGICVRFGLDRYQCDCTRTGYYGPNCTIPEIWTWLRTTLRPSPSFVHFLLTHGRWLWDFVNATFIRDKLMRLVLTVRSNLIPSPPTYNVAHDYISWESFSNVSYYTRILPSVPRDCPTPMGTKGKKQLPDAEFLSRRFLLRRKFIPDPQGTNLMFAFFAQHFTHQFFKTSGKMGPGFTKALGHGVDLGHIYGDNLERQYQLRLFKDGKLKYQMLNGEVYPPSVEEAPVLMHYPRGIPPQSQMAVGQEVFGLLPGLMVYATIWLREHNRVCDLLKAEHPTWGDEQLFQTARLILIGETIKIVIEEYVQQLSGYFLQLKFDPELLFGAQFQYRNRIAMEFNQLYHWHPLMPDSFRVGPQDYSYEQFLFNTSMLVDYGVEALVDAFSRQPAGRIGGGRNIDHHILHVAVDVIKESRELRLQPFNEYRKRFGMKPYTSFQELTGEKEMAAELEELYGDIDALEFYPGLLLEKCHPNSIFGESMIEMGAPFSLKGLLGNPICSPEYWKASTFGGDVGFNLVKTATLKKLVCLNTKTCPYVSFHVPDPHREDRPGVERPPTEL
Description: Inhibition of COX1 in bovine platelets assessed as formation of 12-hydroxyheptadecatrienoic acid by HPLC

MONO-MAC-6 [4] = experiment: Inhibition of TNF-alpha-stimulated adhesion of human MM6 cells to BAEC at 100 uM by static assay relative to control; assay type: functional
MONO-MAC-6 [5] = experiment: Inhibition of TNF-alpha-stimulated adhesion of human MM6 cells to BAEC at 40 uM by static assay relative to control; conditions: MONO-MAC-6, read-out: INH
[6] = Cytotoxicity against BALB/c mouse polymorphonuclear leukocytes assessed as cell viability after 6 hrs by trypan blue exclusion assay; conditions: read-out: Activity
Mus musculus [7] = experiment: Effect on compound 48/80-induced leukocyte recruitment in BALB/c mouse peritonitis model assessed as reduction in polymorphonuclear leucocyte count in peritoneal cavity at 50 mg/kg, ip administered 1 hr before compound 48/80 challenge; assay type: functional; set-up: scale not given: the % may be the effect or the level left; conditions: route intraperitoneal
Mus musculus [8] = experiment: Reduction of CD11b protein expression on neutrophils in BALB/c mouse compound 48/80-induced peritonitis model at 50 mg/kg, ip administered 1 hr before compound 48/80 challenge; assay type: functional; set-up: scale not given: the % may be the effect or the level left; conditions: route intraperitoneal
MONO-MAC-6 [9] = experiment: Inhibition of TNF-alpha-stimulated adhesion of human MM6 cells to BAEC at 30 uM by static assay relative to control; assay type: functional
Bos taurus = species: Bos taurus; conditions: 10 uM
Description: Inhibition of 5LOX in bovine polymorphonuclear leucocytes assessed as leukotriene B4 formation at 10 uM

IC50 [1] [µM] | IC50 [2] [µM] | IC50 [3] [nM] | SMILES | other results
> 50 | 8 | 10 | COc1ccc(-c2sncc2-c2ccc(C)cc2)cc1 | –
> 50 | > 50 | 20000 | CS(=O)(=O)c1ccc(-c2c(-c3ccccc3)ssc2=S)cc1 | inhibition at 100 µM (MONO-MAC-6 [4]): 38%
> 50 | > 50 | 8000 | CS(=O)(=O)c1ccc(-c2c(-c3ccccc3)ssc2=O)cc1 | –
> 50 | 50 | 40 | Cc1ccc(-c2cnsc2-c2ccc(Cl)cc2)cc1 | –
> 50 | > 50 | 600 | Cc1ccc(-c2ssc(=S)c2-c2ccc(S(C)(=O)=O)cc2)cc1 | inhibition at 100 µM (MONO-MAC-6 [4]): 26%
> 50 | > 50 | 200 | Cc1ccc(-c2c(-c3ccc(Cl)cc3)ssc2=O)cc1 | –
– | > 50 | 200 | Cc1ccc(-c2sncc2-c2ccc(Cl)cc2)cc1 | –
> 50 | 20 | 2000 | Cc1ccc(-c2c(-c3ccc(Cl)cc3)ssc2=S)cc1 | –
4 | – | 100 | Clc1ccc(-c2cnsc2-c2ccc(Cl)cc2)cc1 | –
> 50 | 20 | 20 | COc1ccc(-c2sncc2-c2ccc(Cl)cc2)cc1 | –
> 50 | 1 | 50000 | CC(Cc1ccc(O)c(O)c1)C(C)Cc1ccc(O)c(O)c1 (stereo not drawn) [NORDIHYDROGUAIARETIC ACID] | –
– | – | – | Cc1ccc(-c2cc(C(F)(F)F)nn2-c2ccc(S(N)(=O)=O)cc2)cc1 [CELECOXIB] | inhibition at 40 µM (MONO-MAC-6 [5]): 85%
50 | > 50 | 6 | Cc1ccc(-c2ssc(=S)c2-c2ccc(Cl)cc2)cc1 | –
9 | 10 | 50000 | CS(=O)(=O)c1ccc(-c2sncc2-c2ccc(F)cc2)cc1 | –
1 | > 50 | 0.3 | COc1ccc(-c2ssc(=O)c2-c2ccc(OC)cc2)cc1 | –
> 50 | > 50 | 1000 | Oc1ccc(-c2cnsc2-c2ccc(O)cc2)cc1 | –
> 50 | > 50 | 20 | Cc1ccc(-c2ssc(=O)c2-c2ccc(Cl)cc2)cc1 | –
– | > 50 | – | O=C(O)Cc1ccccc1Nc1c(Cl)cccc1Cl [DICLOFENAC] | –
> 50 | 20 | > 50000 | CS(=O)(=O)c1ccc(-c2ssc(=S)c2-c2ccc(F)cc2)cc1 | inhibition at 100 µM (MONO-MAC-6 [4]): 85%
0.8 | 20 | 3 | COc1ccc(-c2cnsc2-c2ccc(OC)cc2)cc1 | –
> 50 | 3 | – | CS(=O)(=O)c1ccc(-c2ssc(=S)c2-c2ccccc2)cc1 | inhibition at 100 µM (MONO-MAC-6 [4]): 9%
> 50 | 6 | 20000 | Oc1ccc(-c2ssc(=S)c2-c2ccc(O)cc2)cc1 | inhibition at 100 µM (MONO-MAC-6 [4]): 54%
– | 50 | 70 | COc1ccc(-c2cnsc2-c2ccc(Cl)cc2)cc1 | –
9 | 9 | 7000 | Cc1ccc(-c2c(-c3ccc(S(C)(=O)=O)cc3)ssc2=S)cc1 | inhibition at 100 µM (MONO-MAC-6 [4]): 71%; viability at 6 h [6]: 94%; Activity (Mus musculus [7]): 49%; Activity (Mus musculus [8]): 40%
– | 0.189 | 200 | CC1(C)Cc2c(-c3ccccc3)c(-c3ccc(Cl)cc3)c(CC(=O)O)n2C1 [LICOFELONE] | inhibition at 30 µM (MONO-MAC-6 [9]): 56%
20 | 10 | 30 | COc1ccc(-c2ssc(=S)c2-c2ccc(OC)cc2)cc1 | –
1.1 | > 50 | 8000 | CS(=O)(=O)c1ccc(-c2ssc(=O)c2-c2ccccc2)cc1 | inhibition (Bos taurus): 13%
